# Source: US20230015532A1, “PHARMACEUTICAL COMPOSITION, FOR PREVENTING OR TREATING FIBROSIS, COMPRISING PHEOPHORBIDE COMPOUND AS ACTIVE INGREDIENT” (PAEAN BIOTECHNOLOGY INC., priority 2019, published 2023)
# System: pulmonary fibrosis induced by bleomycin (BLM) in C57BL/6NCr10ri mice
# Experiment: Bleomycin-induced pulmonary fibrosis model mice
# Assay type: in vivo
# Conditions: oral once daily Day 1 to Day 21, 1.25-80 mg/kg
# Experimental: Mice were weighed and divided into total seven groups, and then administered intratracheally with sterile physiological saline in the vehicle control group and with BLM in the other groups than the vehicle control group on Day 1 to induce pulmonary fibrosis. Then, from Day 1 to Day 21, DMSO (sigma D2650-5X) devoid of the effective substance was administered to the vehicle control group and the negative control group (fibrosis control).
# In addition, T1 to T4 groups and the positive control group were orally administered with the effective substance (pheophorbide a) and nintedanib, respectively, once daily. […]
# Following the administration, the death and the moribund status were observed once daily, and general symptoms such as appearance and behavioral changes were observed twice daily. […] Body weight was measured 7 times in total (Day 1, 2, 4, 8, 11, 15 and 18) during the administration and once on the autopsy day.
# On Day 22, the animals were euthanized by isoflurane inhalation and subjected to autopsy. […] The organ weight ratio of the extracted lungs was calculated by using the following calculation formula. […]
# The results of the experiments were expressed by the mean and the standard deviation and statistically analyzed using Pristima System or Statistical Analysis System (SAS/STAT).
substance,measurement,setting,value
pheophorbide a,anti-fibrotic effect as compared with the negative control group,"BLM 1.8 mg/kg intratracheal, mice",anti-fibrotic effect
same,anti-fibrotic effect as compared with the positive control group (nintedanib),"nintedanib 60 mg/kg, BLM mice",significant anti-fibrotic effect
